Experimental data from patent publication US10059687B2, “Histone demethylase inhibitors” (CELGENE QUANTICEL RESEARCH, INC., priority 2015, dated 2018).

Tests used:
[1] = test system: esophageal squamous cell carcinoma KYSE-150 cells; experiment: Cellular IC50 in KYSE-150 cells; type: cell-based; settings: Homo sapiens, one class given per A and B pair
Excerpt: Table 7 provides IC50 values of various compounds disclosed herein, tested in cellular human esophageal squamous cell carcinoma KYSE-150 cells: […]

JMJD2C = JMJD2C (Homo sapiens (Human), UniProt Q9H3R0); experiment: In vitro enzyme inhibition assay for JMJD2C activity (TR-FRET); type: biochemical; settings: Table 5; one class given per A and B pair
Chain of JMJD2C (Q9H3R0 2-372): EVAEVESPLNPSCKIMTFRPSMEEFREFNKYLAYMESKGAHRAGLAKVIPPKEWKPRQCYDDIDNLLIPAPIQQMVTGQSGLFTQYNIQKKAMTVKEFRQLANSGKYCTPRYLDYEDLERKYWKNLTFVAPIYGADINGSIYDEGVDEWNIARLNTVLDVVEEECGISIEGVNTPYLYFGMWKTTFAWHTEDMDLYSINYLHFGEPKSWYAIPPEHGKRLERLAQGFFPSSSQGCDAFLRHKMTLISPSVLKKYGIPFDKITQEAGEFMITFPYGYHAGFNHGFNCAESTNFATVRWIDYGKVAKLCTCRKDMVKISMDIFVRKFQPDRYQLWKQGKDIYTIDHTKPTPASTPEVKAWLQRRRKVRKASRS
Experimental: This assay determines the ability of a test compound to inhibit JMJD2C demethylase activity. Baculovirus expressed JMJD2C (GenBank Accession #BC143571, AA 2-372) was purchased from BPS Bioscience (Cat#50105).
The ability of test compounds to inhibit the activity of JMJD2C was determined in 384-well plate format under the following reaction conditions: 0.3 nM JMJD2C, 300 nM H3K9me3-biotin labeled peptide (Anaspec cat #64360), 2 μM alpha-ketoglutaric acid in assay buffer of 50 mM HEPES, pH7.3, 0.005% Brij35, 0.5 mM TCEP, 0.2 mg/ml BSA, 50 μM sodium L-ascorbate, and 2 μM ammonium iron(II) sulfate. Reaction product was determined quantitatively by TR-FRET after the addition of detection reagent Phycolink Streptavidin-allophycocyanin (Prozyme) and Europium-anti-di-methylated histone H3 lysine 9 (H3K9me2) antibody (PerkinElmer) in the presence of 5 mM EDTA in LANCE detection buffer (PerkinElmer) at a final concentration of 50 nM and 1 nM, respectively.
(§1) The assay reaction was initiated by the following: 2 μl of the mixture of 900 nM H3K9me3-biotin labeled peptide and 6 μM alpha-ketoglutaric acid with 2 μl of 11-point serial diluted inhibitor in 3% DMSO were added to each well of the plate, followed by the addition of 2 μl of 0.9 nM JMJD2C to initiate the reaction. The reaction mixture was incubated at RT for 30 min, and terminated by the addition of 6 μl of 5 mM EDTA in LANCE detection buffer containing 100 nM Phycolink Streptavidin-allophycocyanin and 2 nM Europium-anti-H3K9me2 antibody. Plates were read by EnVisionMultilabel Reader in TR-FRET mode (excitation at 320 nm, emission at 615 nm and 665 nm) after 1 hr incubation at RT. A ratio was calculated (665/615) for each well and fitted to determine inhibition constant (IC50).

JMJD3 = JMJD3 (Homo sapiens, UniProt O15054); experiment: In vitro enzyme inhibition assay for JMJD3 activity (TR-FRET); type: biochemical; settings: Table 5; one class given per A and B pair
Experimental: This assay determines the ability of a test compound to inhibit JMJD3 demethylase activity. Baculovirus expressed JMJD3 (GenBank Accession #NM-001080424, AA1043-end) was purchased from BPS Bioscience (Cat#50115).
The enzymatic assay of JMJD3 activity is based upon Time Resolved-Fluorescence Resonance Energy Transfer (TR-FRET) detection. The ability of test compounds to inhibit the activity of JMJD3 was determined in 384-well plate format under the following reaction conditions: 5 nM JMJD3, 250 nM H3K27me3-biotin labeled peptide (Anaspec cat #64367), 0.4 to 2 μM α-ketoglutaric acid in assay buffer of 50 mM HEPES, pH7.3, 0.005% Brij35, 0.5 mM TCEP, 0.2 mg/ml BSA, 50 μM sodium L-ascorbate, and 5 μM ammonium iron(II) sulfate. Reaction product was determined quantitatively by TR-FRET after the addition of detection reagent Phycolink Streptavidin-allophycocyanin (Prozyme) and Europium-anti-H3K27me2 antibody (PerkinElmer) in the presence of 5 mM EDTA in LANCE detection buffer (PerkinElmer) at a final concentration of 50 nM and 1 nM, respectively.
The assay reaction was initiated by the following: […] of the mixture of 750 nM H3K27me3-biotin labeled peptide and 1.2 to 6 μM alpha-ketoglutaric acid with 2 μL of 11-point serial diluted inhibitor in 3% DMSO were added to each well of plate, followed by the addition of 2 μl of 15 nM JMJD3 to initiate the reaction. The reaction mixture was incubated at RT for 30 min, and terminated by the addition of 6 μL of 5 mM EDTA in LANCE detection buffer containing 100 nM Phycolink Streptavidin-allophycocyanin and 2 nM Europium-anti-H3K27me2 antibody. Plates were read by EnVisionMultilabel Reader in TR-FRET mode (excitation at 320 nm, emission at 615 nm and 665 nm) after 1 hr incubation at RT. A ratio from the readout of 665/615 was calculated for each well and fitted to determine inhibition constant (IC50).

Jarid1B = Jarid1B (Homo sapiens (Human), UniProt Q9UGL1); experiment: In vitro enzyme inhibition assay for Jarid1B activity (TR-FRET); type: biochemical; settings: Table 5; one class given per A and B pair
Chain of Jarid1B (Q9UGL1 whole entry, species assumed): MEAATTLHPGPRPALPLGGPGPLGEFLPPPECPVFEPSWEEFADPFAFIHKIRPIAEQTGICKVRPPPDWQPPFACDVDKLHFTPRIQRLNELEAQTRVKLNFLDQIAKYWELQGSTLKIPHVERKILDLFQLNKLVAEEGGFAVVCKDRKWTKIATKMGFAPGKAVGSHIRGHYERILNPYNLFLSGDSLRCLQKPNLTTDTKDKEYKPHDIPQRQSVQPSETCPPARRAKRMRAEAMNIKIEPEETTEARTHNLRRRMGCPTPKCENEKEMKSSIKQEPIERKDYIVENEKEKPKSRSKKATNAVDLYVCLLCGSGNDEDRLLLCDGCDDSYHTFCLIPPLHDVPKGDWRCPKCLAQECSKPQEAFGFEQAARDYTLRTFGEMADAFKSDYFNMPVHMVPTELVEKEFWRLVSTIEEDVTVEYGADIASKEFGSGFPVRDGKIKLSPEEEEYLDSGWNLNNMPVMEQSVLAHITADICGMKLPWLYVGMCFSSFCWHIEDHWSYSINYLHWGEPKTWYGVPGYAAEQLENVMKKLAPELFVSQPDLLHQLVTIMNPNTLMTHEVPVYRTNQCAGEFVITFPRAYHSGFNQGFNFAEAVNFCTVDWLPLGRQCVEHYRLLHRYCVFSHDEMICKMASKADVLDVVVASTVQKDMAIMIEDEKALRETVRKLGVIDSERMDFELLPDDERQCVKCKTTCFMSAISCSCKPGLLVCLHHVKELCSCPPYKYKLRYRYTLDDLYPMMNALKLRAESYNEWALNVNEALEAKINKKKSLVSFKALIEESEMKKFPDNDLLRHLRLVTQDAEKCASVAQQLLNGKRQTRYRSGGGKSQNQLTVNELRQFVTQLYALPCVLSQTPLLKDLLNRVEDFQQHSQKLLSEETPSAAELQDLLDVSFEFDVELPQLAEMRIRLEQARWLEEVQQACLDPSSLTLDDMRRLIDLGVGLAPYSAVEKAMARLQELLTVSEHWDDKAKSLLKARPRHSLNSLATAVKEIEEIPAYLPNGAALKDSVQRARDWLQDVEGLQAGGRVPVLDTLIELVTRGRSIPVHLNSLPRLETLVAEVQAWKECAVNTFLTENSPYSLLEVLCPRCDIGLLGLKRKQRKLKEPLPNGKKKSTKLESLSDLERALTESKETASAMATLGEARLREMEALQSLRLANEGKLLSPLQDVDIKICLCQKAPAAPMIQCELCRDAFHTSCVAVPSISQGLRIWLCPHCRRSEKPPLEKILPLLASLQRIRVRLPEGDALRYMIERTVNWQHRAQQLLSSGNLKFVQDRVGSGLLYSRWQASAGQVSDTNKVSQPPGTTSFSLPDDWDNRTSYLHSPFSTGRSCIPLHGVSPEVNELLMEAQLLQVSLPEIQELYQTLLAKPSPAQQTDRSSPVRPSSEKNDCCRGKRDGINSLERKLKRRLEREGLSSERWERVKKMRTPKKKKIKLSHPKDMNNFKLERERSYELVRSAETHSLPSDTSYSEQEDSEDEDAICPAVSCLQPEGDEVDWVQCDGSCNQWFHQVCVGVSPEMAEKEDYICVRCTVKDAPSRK
Experimental: The ability of test compounds to inhibit the activity of Jarid1B was determined in 384-well plate format under the following reaction conditions: 0.8 nM Jarid1B, 300 nM H3K4me3-biotin labeled peptide (Anaspec cat #64357), 2 μM alpha-ketoglutaric acid in assay buffer of 50 mM HEPES, pH7.3, 0.005% Brij35, 0.5 mM TCEP, 0.2 mg/ml BSA, 50 μM sodium L-ascorbate, and 2 μM ammonium iron(II) sulfate. Reaction product was determined quantitatively by TR-FRET after the addition of detection reagent Phycolink Streptavidin-allophycocyanin (Prozyme) and Europium-anti-H3K4me or -H3K4me2 antibody (PerkinElmer) in the presence of 5 mM EDTA in LANCE detection buffer (PerkinElmer) at a final concentration of 25 nM and 1 nM, respectively.
as §1, with “nM H3K4me3-biotin” for “nM H3K9me3-biotin”, “DMSO was” for “DMSO were”, “of 2.4” for “of 0.9”, “nM Jarid1B” for “nM JMJD2C”, “containing 50” for “containing 100”, “nM Europium-anti-H3K4me/H3K4me2” for “nM Europium-anti-H3K9me2”

| Structure (SMILES) | IC50 [1] [nM] | IC50 (JMJD2C) [nM] | IC50 (JMJD3) [nM] | IC50 (Jarid1B) [nM] |
| --- | --- | --- | --- | --- |
| Cc1ccccc1-c1ccc2c(c1)CCN[C@H]2CNc1cnccc1C(=O)O [Example 8A, (R)-3-(((6-(o-tolyl)-1,2,3,4-tetrahydroisoquinolin-1-yl)methyl)amino)isonicotinic Acid] | 100 to 1000 | 1000 to 10000 | 1000 to 10000 | ≤ 100 |
| Cc1ccccc1-c1ccc2c(c1)CCN[C@@H]2CNc1cnccc1C(=O)O [Example 8B, (S)-3-(((6-(o-tolyl)-1,2,3,4-tetrahydroisoquinolin-1-yl)methyl)amino) isonicotinic Acid] | 100 to 1000 | 1000 to 10000 | 1000 to 10000 | ≤ 100 |
| CCc1ccccc1-c1ccc2c(c1)CCN[C@H]2CNc1cnccc1C(=O)O [Example 9A, (R)-3-(((6-(2-ethylphenyl)-1,2,3,4-tetrahydroisoquinolin-1-yl)methyl)amino)isonicotinic Acid] | 100 to 1000 | 1000 to 10000 | 1000 to 10000 | ≤ 100 |
| CCc1ccccc1-c1ccc2c(c1)CCN[C@@H]2CNc1cnccc1C(=O)O [Example 9B, (S)-3-(((6-(2-ethylphenyl)-1,2,3,4-tetrahydroisoquinolin-1-yl)methyl)amino)isonicotinic Acid] | 100 to 1000 | 1000 to 10000 | 1000 to 10000 | ≤ 100 |
| CCc1ccc(N(C)c2ccc3c(c2)CCN[C@H]3CNc2cnccc2C(=O)O)cc1 [Example 10A, (R)-3-(((6-((4-ethylphenyl)(methyl)amino)-1,2,3,4-tetrahydroisoquinolin-1-yl)methyl)amino)isonicotinic acid] | 100 to 1000 | 1000 to 10000 | 1000 to 10000 | ≤ 100 |

Second part, the molecule after the results:

| IC50 [1] [nM] | IC50 (JMJD2C) [nM] | IC50 (JMJD3) [nM] | IC50 (Jarid1B) [nM] | Structure (SMILES) |
| --- | --- | --- | --- | --- |
| 100 to 1000 | 1000 to 10000 | 1000 to 10000 | ≤ 100 | CCc1ccc(N(C)c2ccc3c(c2)CCN[C@@H]3CNc2cnccc2C(=O)O)cc1 [Example 10B, (S)-3-(((6-((4-ethylphenyl)(methyl)amino)-1,2,3,4-tetrahydroisoquinolin-1-yl)methyl)amino)isonicotinic acid] |
| ≤ 100 | 100 to 1000 | 1000 to 10000 | ≤ 100 | Cc1ccc(N(C)c2ccc3c(c2)CCN(C)[C@H]3CNc2cnccc2C(=O)O)cc1 [Example 11A, (R)-3-(((2-methyl-6-(methyl(p-tolyl)amino)-1,2,3,4-tetrahydroisoquinolin-1-yl)methyl)amino)isonicotinic acid] |
| ≤ 100 | 100 to 1000 | 1000 to 10000 | ≤ 100 | Cc1ccc(N(C)c2ccc3c(c2)CCN(C)[C@@H]3CNc2cnccc2C(=O)O)cc1 [Example 11B, (S)-3-(((2-methyl-6-(methyl(p-tolyl)amino)-1,2,3,4-tetrahydroisoquinolin-1-yl)methyl)amino)isonicotinic acid] |
| ≤ 100 | 1000 to 10000 | 1000 to 10000 | ≤ 100 | Cc1ccccc1-c1ccc2c(c1)CCN(C)[C@H]2CNc1cnccc1C(=O)O [Example 12A, (R)-3-(((2-methyl-6-(o-tolyl)-1,2,3,4-tetrahydroisoquinolin-1-yl)methyl)amino)isonicotinic acid] |
| ≤ 100 | 1000 to 10000 | 1000 to 10000 | ≤ 100 | Cc1ccccc1-c1ccc2c(c1)CCN(C)[C@@H]2CNc1cnccc1C(=O)O [Example 12B, (S)-3-(((2-methyl-6-(o-tolyl)-1,2,3,4-tetrahydroisoquinolin-1-yl)methyl)amino)isonicotinic acid] |
| ≤ 100 | 100 to 1000 | 1000 to 10000 | ≤ 100 | CCc1ccc(N(C)c2ccc3c(c2)CCN(C)[C@H]3CNc2cnccc2C(=O)O)cc1 [Example 13A, (R)-3-(((6-((4-ethylphenyl)(methyl)amino)-2-methyl-1,2,3,4-tetrahydro-isoquinolin-1-yl)methyl)amino)isonicotinic acid] |
